Values quoted from earlier work in US20130164233A1, “SKIN-WHITENING ESSENCE COMPOSITION CONTAINING TYROSINASE INHIBITOR” (priority 2011, published 2013).

System: skin
Settings: conventionally

Structure (SMILES): NC[C@H]1CC[C@H](C(=O)O)CC1 [tranexamic acid]
- Concentration needed to give whitening effect: higher than 3%
